The data set is described as follows: gradient 5% acetonitrile 3 min, to 50% in 2 min, to 85% in 15 min, held 3 min, 100 µL/min. To be noted: column: Zorbax Extend-C18 2.1 x 50 mm; eluents: water / acetonitrile, 0.1% formic acid. The gist of the method:
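Pure standards were analyzed in mixtures of ~100 molecules using HPLC coupled to a quadrupole time-of-flight mass spectrometer, in both positive and negative ionization mode. Separation used a Zorbax Extend-C18 column (2.1 × 50 mm, 1.8 μm) at 100 μL/min, with water and acetonitrile each containing 0.1% formic acid. Dead and dwell volumes were 40 μL and 900 μL, and data were collected over 3 months. Retention time was read from computationally picked adduct peaks, each inspected manually.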
The compound `COc1ccc(-c2ncc3c(n2)CCN(S(=O)(=O)c2cccc4cccnc24)C3)cc1` showed an RP-LC retention time of 935 s.
The compound `Cc1ccc(-c2cc(C(=O)NCCCN3CCc4ccccc4C3)c(C)[nH]2)cc1C` displayed an RP-LC retention time of 751 s.
The value for `COC(=O)c1ccc2c(=O)n(-c3cccc(F)c3)c(N3CCCCC3)nc2c1` was 1150 s; that for `Cc1cccc2nnc(N3CCCN(C(=O)c4cccs4)CC3)n12` was 541 s.
The value for `Cc1cc(Cl)ccc1NC(=O)Cc1nnc(-c2ccc3ncccc3c2)o1` was 766 s; that for `Cc1ccccc1-c1nc(N)n(C(=O)C(C)(C)C)n1` was 1100 s; that for `Cc1cc(C)cc(-c2nc(-c3cccc(-c4ccn[nH]4)c3)no2)c1` was 999 s.
Regarding `Cc1cccc(-n2c(=O)c3c(cc(C)n3C)n(CC(=O)Nc3ccc(C(F)(F)F)cc3)c2=O)c1`, the RP-LC retention time stood at 968 s.
The value for `CCS(=O)(=O)N1CCc2nn(Cc3ccccc3)c(=O)n2CC1` was 687 s; that for `O=C(c1cc(-c2ccncc2)n[nH]1)N1CCCC(C(=O)N2CCN(C(=O)c3ccco3)CC2)C1` (stereo not given) was 556 s.
As for `O=C(Cc1cccs1)NCCOc1ccc(F)cc1`, the figure is 766 s; as for `Cc1nnsc1C(=O)N1CCC(CNC(=O)c2ccccc2C(F)(F)F)CC1`, 674 s; as for `Clc1ccc(Nc2nc(NCCCn3ccnc3)nc3nc[nH]c23)cc1`, 536 s.
As for `Cn1cccc1C(=O)C(=O)NCc1ccc(Cl)cc1`, the figure is 906 s; as for `CN1CCCC2C(c3ccccc3)C(C3=NCCCC3)C(c3ccccc3)CC21` (stereo not given), 589 s.
`CCOc1ccc(CNC(=O)C2CCCN(c3nccnc3Oc3ccc(C)cc3)C2)cc1OCC` (stereo not given): the RP-LC retention time is 1070 s.
`O=C(NCCC1CCN(C(=O)Nc2cc(F)ccc2F)CC1)c1ccoc1` returned an RP-LC retention time of 758 s.
As for `CC1CCN(S(=O)(=O)c2cccn(CC(=O)NCCC3=CCCCC3)c2=O)CC1`, the figure is 878 s; as for `CC(C)Oc1ccccc1CN1CC(c2nc(-c3ccncc3)nn2C)C1`, 590 s.
`O=C(NC1CCCCCC1)c1ccc(CN2C(=O)C3CCCN3C(=O)c3ccccc32)cc1` (stereo not given) returned an RP-LC retention time of 818 s.
With `COc1ccc(Br)c(C(=O)Nc2nnc(Cc3ccc(F)cc3)o2)c1`, the RP-LC retention time is 774 s.
The value for `CCc1nc(NCc2ccccn2)ncc1C(=O)O` was 557 s.
As for `COc1ccc2nc(C(=O)NCc3cccc(Cl)c3)cn2n1`, the figure is 846 s; as for `c1ccc(CC2CCN(Cc3nc(-c4ccc(N5CCOCC5)nc4)no3)CC2)cc1`, 716 s; as for `COc1ccc(C2CC(=O)N(c3ccc(F)cc3)C(=O)C2)cc1OC`, 801 s.
As for `O=C(NCCCN1CCOCC1)c1cc2occc2c(Nc2ccccc2)n1`, the figure is 644 s; as for `CCN(CC)C(=O)c1ccc2c(c1)N(CC(=O)N1CCC(C)CC1)C(=O)C1CCCCN21` (stereo not given), 838 s.
The compound `Cc1ccccc1NS(=O)(=O)c1cn(C(C)C)c2ncccc12` had an RP-LC retention time of 896 s.
In turn, `CCn1cc2c3c(cccc31)CN(C(=O)Nc1cc(C)cc(C)c1)CC2` returned an RP-LC retention time of 1070 s.
Compound `COc1cccc(-c2nc(C3CCN(S(=O)(=O)c4ccc(C)cc4)CC3)no2)c1` returned an RP-LC retention time of 1150 s.
The value for `O=C(NCCn1nnc2cc(C(=O)N3CCCC3)ccc21)Nc1ccccc1Cl` was 892 s.
The value for `Cn1cc(-c2ccc(F)cc2)cc1C(=O)N1CCCC1` was 906 s; that for `COc1ccc(-c2nc(-c3cccc(-c4ccnn4C)c3)no2)cc1` was 1120 s; that for `Cc1cc(NC(=O)CSc2cc(-c3ccccc3)ncn2)no1` was 780 s.
As for `Cc1ccc(NC(=O)C(C)C2CCN(C(=O)Nc3ccc(Cl)cc3)CC2)cc1` (stereo not given), the figure is 963 s; as for `CCOc1nc2ccccc2nc1N1CCCC(C(=O)N2CCN(c3ccc(F)cc3)CC2)C1` (stereo not given), 1300 s; as for `CCn1cc(S(=O)(=O)N2CCC(CCOc3ccccc3F)C2)cn1` (stereo not given), 948 s.
The compound `COc1ccc(C2Cn3nnc(C(=O)N4CCC(C(=O)NC5CCCCC5)CC4)c3CO2)cc1` (stereo not given) gave an RP-LC retention time of 860 s.
The value for `COc1ccc(C2CC(=O)c3c([nH]c(C(=O)OCC4CCCO4)c3C)C2)cc1OC` (stereo not given) was 846 s; that for `O=C(NCc1csc(-c2cccs2)n1)C1CCN(C(=O)c2cccc(F)c2)CC1` was 772 s; that for `COc1cc(OC)c(NC(=O)N(C)Cc2nc3cc(C(=O)N(C)C)ccc3n2C)cc1Cl` was 619 s.
In turn, `CCc1cc(=O)n(CC(=O)Nc2ccccc2F)c(-c2cccc(F)c2)n1` had an RP-LC retention time of 1170 s.
The value for `CCc1nc(-c2cc(S(=O)(=O)NCC(=O)NC3CC3)c(C)s2)no1` was 740 s.
As for `CCOCCCNC(=O)c1ccc(-c2ccc(N3CCCC3)nn2)cc1`, the figure is 558 s; as for `COc1cc(CNC(=O)c2ccc3c(c2)N(C)C(=O)C2CCCCN32)cc(OC)c1OC` (stereo not given), 790 s; as for `O=C(Nc1ccccc1F)N1CCC(CCOc2ccccc2)CC1`, 1030 s.
On to `COC(=O)C1=CN(C2CC2)c2cc(N3CCC4(CC3)OCCO4)c(F)cc2S1(=O)=O`, for which the RP-LC retention time came to 806 s.
The compound `O=C(O)CCCNS(=O)(=O)c1ccc2ccccc2c1` had an RP-LC retention time of 717 s.
The value for `CCOc1ccc(-c2nc(-c3ccc4c(c3)ncn4CCC(=O)N3CCCC3)no2)cc1` was 825 s.
`CCc1ccc(-n2ncc3c(=O)n(Cc4nc(-c5cccc(C)c5)no4)cnc32)cc1` came in with an RP-LC retention time of 1210 s.
As for `Cc1ccc(Nc2c(-c3ccc(N(C)C)cc3)nc3ccc(Br)cn23)cc1`, the figure is 838 s; as for `Cc1ccc(C)c(NC(=O)CC2COc3ccccc3NC2=O)c1` (stereo not given), 738 s; as for `Cc1onc(-c2ccccc2Cl)c1C(=O)NCC1(c2cccs2)CC1`, 950 s.
With `COc1ccccc1-c1nc(COc2cc(C)c3c(C)nn(C)c3n2)c(C)o1`, the RP-LC retention time came out at 1030 s.
In the case of `Cc1cc(-c2csc(S(=O)(=O)NCC3CCN(Cc4ccc(Cl)cc4)CC3)c2)on1`, the RP-LC retention time was 733 s.
Consider `Cc1cc(C)cc(N2CC(c3nc(-c4ccc5c(c4)OCO5)no3)CC2=O)c1` (stereo not given), for which the RP-LC retention time amounted to 1040 s.
As for `CCn1c(=O)c(N2CCCC(C(=O)N3CCN(c4cc(C)ccc4C)CC3)C2)nc2ccccc21` (stereo not given), the figure is 1380 s; as for `CCOC(=O)C1=C(C)N(CC(=O)NC2CCCC2)c2ncnn2C1c1ccc(C)cc1` (stereo not given), 897 s; as for `COc1ccc(Nc2nc(N)c3ccccc3n2)cc1`, 610 s.
As to `CC(C)c1ccc(S(=O)(=O)N2CCC(c3ccncc3)CC2)cc1`, the RP-LC retention time was determined as 749 s.
Take `C=CCN1CCN(C(=O)C2CCN(c3nc(NC(C)=O)c(C(=O)N4CCCC4)s3)CC2)CC1`: the RP-LC retention time was 579 s.
Consider `O=C(NCc1ccc(F)cc1)c1cn2c(n1)COCC2`, for which the RP-LC retention time turned out to be 631 s.
In turn, `CN(C)c1ccc(CNC(=O)CN2C(=O)CCc3cc(Br)ccc32)cc1` displayed an RP-LC retention time of 651 s.
As for `O=C(C1=CN(c2ccc(Cl)cc2)c2ccccc2S1(=O)=O)N1CCOCC1`, the figure is 791 s.
The value for `CC1CC(=O)N(CC(=O)NCc2ccc3c(c2)OCO3)c2ccccc2S1` (stereo not given) was 741 s; that for `O=C(NCC1CCN(C(=O)c2ccccc2F)CC1)c1ccc(Cl)s1` was 781 s.
With `CCS(=O)(=O)Nc1ccc(S(=O)(=O)Nc2nc(C)cc(C)n2)cc1`, the RP-LC retention time came to 598 s.
The value for `COc1cc(-c2oc3cc(O)cc(O)c3c(=O)c2OC[C@@H]2OC(O[C@@H]3O[C@@H](C)[C@H](O)[C@@H](O)[C@H]3O)[C@@H](O)[C@H](O)[C@@H]2O)ccc1O` (stereo not given in full) was 638 s; that for `Cc1noc([C@@H]2CC(F)(F)CN2C(=O)c2nccn2C)n1` was 701 s; that for `COc1ccc2sc(OC3CCN(C(=O)NC(C)C)CC3)nc2c1` was 819 s.
The value for `CCN1CCCC1CNC(=O)c1nc(-c2oc3ccc(OC)cc3c2C)no1` (stereo not given) was 682 s.
`CCn1c(CCNC(=O)Cc2ccc(Cl)cc2)nc2cccnc21`: the RP-LC retention time is 639 s.
As for `Cc1cccc(NC(=O)C2CCCN(S(=O)(=O)c3c[nH]c(C(=O)N4CCCCCC4)c3)C2)c1` (stereo not given), the figure is 922 s; as for `CCCCNC(=O)c1cc(NC(=O)CC)cc2nc(C)ccc12`, 595 s; as for `CCCCCOc1ccc(C(=O)N(Cc2ccc(C)o2)C2CCS(=O)(=O)C2)cc1` (stereo not given), 1110 s.
`CCN(CC)C(C(=O)NC1CCCC1)c1cc2c(cc1[N+](=O)[O-])OCO2` (stereo not given): the RP-LC retention time came out at 586 s.
As for `COc1ccc(-c2cc3n(n2)CCCN(S(=O)(=O)c2ccc(NC(C)=O)cc2)C3)cc1`, the figure is 779 s.
As for `CN1CCN(CCNC(=O)CCc2c(-c3ccc(Br)cc3)nc3ccccn23)CC1`, the figure is 543 s; as for `CCN1C(=O)C2(CCN(S(=O)(=O)c3cccc(C)c3)CC2)c2ccccc21`, 1070 s; as for `CN1CCN(C(=O)C2CCCN(c3ncnc4c3nc3n4CCCCC3)C2)CC1` (stereo not given), 570 s.

Source of the values: the METLIN SMRT retention time set (Domingo-Almenara et al. 2019).
